Common to all, as to assay: MIC, microdilution broth method (NCCLS)
Format in all cases: cell-based
Details in all cases: 35° C., 16-20 hours
(In broth dilution the organism is exposed to a series of concentrations in liquid medium.)

One experiment deals with E. faecalis ATCC29212. Here is the method:
(§1) Minimal inhibitory concentration (MIC) has been an indicator of in vitro antibacterial activity widely used in the art. The in vitro antimicrobial activity of the compounds was determined by the microdilution broth method following the test method from the National Committee for Clinical Laboratory Standards (NCCLS). This method is described in the NCCLS Document M7-A4, Vol.17, No.2, “Methods for Dilution Antimicrobial Susceptibility Test for Bacteria that Grow Aerobically—Fourth Edition”, which is incorporated herein by reference.
(§2) In this method two-fold serial dilutions of drug in cation adjusted Mueller-Hinton broth are added to wells in microdilution trays. The test organisms are prepared by adjusting the turbidity of actively growing broth cultures so that the final concentration of test organism after it is added to the wells is approximately 5×10^4 CFU/well.
(§3) Following inoculation of the microdilution trays, the trays are incubated at 35° C. for 16-20 hours and then read. […] The amount of growth in the wells containing the test compound is compared with the amount of growth in the growth-control wells (no test compound) used in each tray. As set forth in Table 1, compounds of the present invention were tested against a variety of Gram positive and Gram negative pathogenic bacteria resulting in a range of activities depending on the organism tested.

The subject of a further experiment is S. pneumoniae ATCC49619. The procedure: as §1, §2, §3
For a further experiment, the system named is H. influenzae ATCC49247. The procedure: as §1, §2, §3
Another experiment has as its system S. aureus ATCC29213. Here is the method:
as §1, §2, §3

≈ marks a conversion by molar mass, not a printed value.

In the case of `CCC1OC(=O)C(C)C(=O)C(C)C(OC2OC(C)CC(N(C)C)C2O)C(C)(OC(=O)OCC(F)=Cc2ccc(-c3cccnn3)cc2)CC(C)C(=O)C(C)C2NC(=O)OC12C` (stereo not drawn) [Compound 168], in the experiment with E. faecalis ATCC29212, the “MIC (C: E. faecalis ATCC29212)” value came to 0.06 µg/mL (≈ 0.0702 µM). The “MIC (D: S. pneumoniae ATCC49619)” value in the experiment with S. pneumoniae ATCC49619 is “≦0.015 μg/mL”. Besides, the “MIC (E: H. influenzae ATCC49247)” value with H. influenzae ATCC49247 turned out to be 0.5 µg/mL (≈ 0.585 µM). Also, the “MIC (B: S. aureus ATCC29213)” value against S. aureus ATCC29213 stood at 0.12 µg/mL (≈ 0.14 µM).

As for `CCC1OC(=O)C(C)C(=O)C(C)C(OC2OC(C)CC(N(C)C)C2O)C(C)(OC(=O)OCC=C(F)c2ccc(-c3ncccn3)cc2)CC(C)C(=O)C(C)C2NC(=O)OC12C` (stereo not drawn) [Compound 224], the “MIC (C: E. faecalis ATCC29212)” value against E. faecalis ATCC29212 was determined as 0.06 µg/mL (≈ 0.0702 µM). Moreover, the “MIC (D: S. pneumoniae ATCC49619)” value with S. pneumoniae ATCC49619 is “≦0.015 μg/mL”. Further, the “MIC (E: H. influenzae ATCC49247)” value with H. influenzae ATCC49247 is 2 µg/mL (≈ 2.34 µM). Besides, the “MIC (B: S. aureus ATCC29213)” value in the experiment with S. aureus ATCC29213 is 0.12 µg/mL (≈ 0.14 µM).

In the case of `CCC1OC(=O)C(C)C(=O)C(C)C(OC2OC(C)CC(N(C)C)C2O)C(C)(OC(=O)OCCCCc2ccc(-c3ncccn3)cc2)CC(C)C(=O)C(C)C2NC(=O)OC12C` (stereo not drawn) [Compound 286], the “MIC (C: E. faecalis ATCC29212)” value in the experiment with E. faecalis ATCC29212 was determined as 0.25 µg/mL (≈ 0.293 µM). Also, in the experiment with S. pneumoniae ATCC49619, the “MIC (D: S. pneumoniae ATCC49619)” value turned out to be 0.06 µg/mL (≈ 0.0703 µM). Also, the “MIC (E: H. influenzae ATCC49247)” value in the experiment on H. influenzae ATCC49247 was 4 µg/mL (≈ 4.69 µM). Besides, the “MIC (B: S. aureus ATCC29213)” value against S. aureus ATCC29213 was determined as 0.25 µg/mL (≈ 0.293 µM).

With `CCC1OC(=O)C(C)C(=O)C(C)C(OC2OC(C)CC(N(C)C)C2O)C(C)(OC(=O)NOCc2ccc(-c3cnccn3)cc2)CC(C)C(=O)C(C)C2NC(=O)OC12C` (stereo not drawn) [Compound 601], the “MIC (C: E. faecalis ATCC29212)” value with E. faecalis ATCC29212 was found to be 0.12 µg/mL (≈ 0.145 µM). Moreover, in the experiment with S. pneumoniae ATCC49619, the “MIC (D: S. pneumoniae ATCC49619)” value was determined as 0.03 µg/mL (≈ 0.0363 µM). For the same molecule, the “MIC (E: H. influenzae ATCC49247)” value in the experiment on H. influenzae ATCC49247 worked out at 2 µg/mL (≈ 2.42 µM). The “MIC (B: S. aureus ATCC29213)” value in the experiment with S. aureus ATCC29213 was 0.25 µg/mL (≈ 0.303 µM).

On to `CCC1OC(=O)C(C)C(=O)C(C)C(OC2OC(C)CC(N(C)C)C2O)C(C)(OC(=O)NOCC#Cc2ccc(-c3cnccn3)cc2)CC(C)C(=O)C(C)C2NC(=O)OC12C` (stereo not drawn) [Compound 603], for which the “MIC (C: E. faecalis ATCC29212)” value with E. faecalis ATCC29212 came out at 0.12 µg/mL (≈ 0.141 µM). In addition, in the experiment with S. pneumoniae ATCC49619, the “MIC (D: S. pneumoniae ATCC49619)” value was 0.03 µg/mL (≈ 0.0353 µM). The “MIC (E: H. influenzae ATCC49247)” value against H. influenzae ATCC49247 turned out to be 2 µg/mL (≈ 2.35 µM). Besides, the “MIC (B: S. aureus ATCC29213)” value against S. aureus ATCC29213 was 0.25 µg/mL (≈ 0.294 µM).

With `CC[C@H]1OC(=O)[C@H](C)C(=O)[C@H](C)[C@@H](O[C@@H]2O[C@H](C)C[C@H](N(C)C)[C@H]2O)[C@](C)(OC(=O)NOCC#Cc2cnc3ccccc3c2)C[C@@H](C)C(=O)[C@H](C)[C@H]2NC(=O)O[C@@]21C` [Compound 618], the “MIC (C: E. faecalis ATCC29212)” value in the experiment with E. faecalis ATCC29212 came to 0.06 µg/mL (≈ 0.0729 µM). The “MIC (D: S. pneumoniae ATCC49619)” value in the experiment with S. pneumoniae ATCC49619 worked out at 0.03 µg/mL (≈ 0.0365 µM). Also, the “MIC (E: H. influenzae ATCC49247)” value against H. influenzae ATCC49247 came to 1 µg/mL (≈ 1.22 µM). Moreover, in the experiment on S. aureus ATCC29213, the “MIC (B: S. aureus ATCC29213)” value came out at 0.25 µg/mL (≈ 0.304 µM).

Turning to `CC[C@H]1OC(=O)[C@@](C)(F)C(=O)[C@H](C)[C@@H](O[C@@H]2O[C@H](C)C[C@H](N(C)C)[C@H]2O)[C@](C)(OC(=O)NOC/C=C/c2ccc(-c3ncccn3)cc2)C[C@@H](C)C(=O)[C@H](C)[C@H]2NC(=O)O[C@@]21C` [Compound 622], in the experiment on E. faecalis ATCC29212, the “MIC (C: E. faecalis ATCC29212)” value came to 0.25 µg/mL (≈ 0.287 µM). In addition, the “MIC (D: S. pneumoniae ATCC49619)” value against S. pneumoniae ATCC49619 was found to be 0.03 µg/mL (≈ 0.0345 µM). Further, in the experiment with H. influenzae ATCC49247, the “MIC (E: H. influenzae ATCC49247)” value stood at 4 µg/mL (≈ 4.6 µM). Besides, in the experiment on S. aureus ATCC29213, the “MIC (B: S. aureus ATCC29213)” value turned out to be 0.25 µg/mL (≈ 0.287 µM).

`CC[C@H]1OC(=O)[C@@](C)(F)C(=O)[C@H](C)[C@@H](O[C@@H]2O[C@H](C)C[C@H](N(C)C)[C@H]2O)[C@](C)(OC(=O)NOCC#Cc2cnc3ccccc3c2)C[C@@H](C)C(=O)[C@H](C)[C@H]2NC(=O)O[C@@]21C` [Compound 623]: the “MIC (C: E. faecalis ATCC29212)” value with E. faecalis ATCC29212 stood at 0.12 µg/mL (≈ 0.143 µM). Moreover, in the experiment on S. pneumoniae ATCC49619, the “MIC (D: S. pneumoniae ATCC49619)” value was 0.03 µg/mL (≈ 0.0357 µM). Besides, in the experiment on H. influenzae ATCC49247, the “MIC (E: H. influenzae ATCC49247)” value came to 4 µg/mL (≈ 4.76 µM). Further, the “MIC (B: S. aureus ATCC29213)” value with S. aureus ATCC29213 is 0.25 µg/mL (≈ 0.297 µM).

On to `CC[C@H]1OC(=O)[C@H](C)C(=O)[C@H](C)[C@@H](O[C@@H]2O[C@H](C)C[C@H](N(C)C)[C@H]2O)[C@](C)(OC(=O)NNS(=O)(=O)c2ccc(C)cc2)C[C@@H](C)C(=O)[C@H](C)[C@H]2NC(=O)O[C@@]21C` [Compound 809], for which the “MIC (C: E. faecalis ATCC29212)” value with E. faecalis ATCC29212 turned out to be 0.5 µg/mL (≈ 0.617 µM). In the experiment on S. pneumoniae ATCC49619, the “MIC (D: S. pneumoniae ATCC49619)” value amounted to 0.03 µg/mL (≈ 0.037 µM). The “MIC (E: H. influenzae ATCC49247)” value with H. influenzae ATCC49247 is 2 µg/mL (≈ 2.47 µM). Also, the “MIC (B: S. aureus ATCC29213)” value against S. aureus ATCC29213 amounted to 1 µg/mL (≈ 1.23 µM).
